For one assay, the system named is Shigella Castellani LXX. Briefly: MIC assay (broth micro-dilution). In kind it is cell-based. The conditions noted are these: Table S11; LB broth, 37 °C, 16 h, n = 2. The procedure, abridged: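 MIC = lowest peptide concentration with no visible growth; LB broth microdilution, n = 2. Inoculum: overnight culture diluted 5000× (S. aureus 10000×). Peptides serially diluted 2-fold, 64–0.125 µg mL^−1 in the broth added to cells.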
On the technique in general: In broth dilution the organism is exposed to a series of concentrations in liquid medium.

A further assay relates to K. pneumoniae 15580. Briefly: MIC against colistin-resistant strain. The class given is cell-based. The conditions noted are these: Figure S127a. As for the experimental part: (§1) All MIC assays were performed two independent times (n = 2) in 96‐well plates using a broth micro‐dilution method. The lowest concentration of that inhibited visible microbial growth was recorded as the MIC value.
(§2) For most of bacterial strains, overnight cultures were diluted 5000‐fold in LB broth. For E. faecium and S. aureus, overnight cultures were diluted 1000‐ and 10000‐fold in LB broth, respectively. 100 µL of diluted cells was mixed with 100 µL of LB broth containing each peptide ranging from 64 to 0.125 µg mL^−1 at 2‐fold serial dilutions.

The subject of assay [1] is meropenem-resistant A. baumannii 1104008. The assay is described as follows: Neutropenic thigh infection model. In kind it is in vivo, mouse. Conditions: A. baumannii 1104008 thigh, 25 mg kg^−1 s.c. at 2, 8, 14, 20 h, burden at 24 h, n = 8 thighs. As for the experimental part:
(§3) Six‐week‐old female ICR mice were used in all experiments and housed in a temperature‐controlled room (25 °C) with 12‐h light/dark cycle and 30% relative humidity. Meropenem‐resistant A. baumannii 1104008 or methicillin‐resistant S. aureus USA300 was cultured in the MH broth containing 50 µg mL^−1 of gentamycin and the MH broth, respectively, at 37 °C and 200 rpm overnight. Then, the strains A. baumannii 1104008 or S. aureus USA300 were washed twice in 0.9% saline and further diluted to verify the bacterial suspension with a challenge inoculum of ≈1.0 × 10^6 CFU in a volume of 0.05 mL per mouse thigh. Mice were rendered neutropenic by receiving 150 and 100 mg kg^−1 of cyclophosphamide via intraperitoneal injection on day‐4 and day‐1 before infection, respectively. For treating the thigh infection caused by A. baumannii 1104008, mice were given 100 µL of vehicle (20% solutol), colistin (25 mg kg^−1, 20% solutol), or aquicidine L (25 mg kg^−1, 20% solutol) at 2, 8, 14, and 20 h after post‐infection via subcutaneous injection. […] All mice were observed after infection for morbidity, and any abnormal signs were recorded. […] The treatment efficacies of aquicidine L or C4 were determined as the bacterial burden reduction in the thighs relative to both the vehicle and colistin‐ or vancomycin‐treated controls. All graphic data were analyzed using the GraphPad Prism software (Prism10).

Another assay concerns K. pneumoniae CRKP5452. Briefly: Resistance acquisition by serial passaging. In kind it is cell-based. The conditions noted are these: K. pneumoniae CRKP5452, sub-MIC levels, daily passage for 21 days, n = 2. As for the experimental part: (§4) Overnight cultures S. aureus USA300 were diluted 10000‐fold in LB broth, and 100 µL of dilute cell suspension was added to 96‐well plates containing 100 µL serially diluted aquicidine C4, telomycin, and daptomycin (with 15 mM CaCl2). Overnight cultures K. pneumoniae CRKP5452 were diluted 5000‐fold in LB broth, and 100 µL of dilute cell suspension was added to 96‐well plates containing 100 µL serially diluted aquicidine L and colistin. After an incubation of 24 h at 37 °C, the MIC value was determined. […] The MIC value was recorded as described above, and the process was repeated daily for 21 days. Experiments were performed two independent times (n = 2).

Assay [2] concerns vancomycin-resistant E. faecium 35682. Briefly: Mouse peritonitis-sepsis model. The class given is in vivo. Conditions: E. faecium 35682, ICR mice, single s.c. dose 1 h after infection, doses 50, 100, 150 mg kg^−1, n = 5. As for the experimental part:
(§5) Six‐week‐old female ICR mice were used in all experiments and housed in a temperature‐controlled room (25 °C) with 12‐h light/dark cycle and 30% relative humidity. Mice were observed twice daily for mortality and morbidity. Abnormal clinical signs were recorded if observed and totally monitored for five days. The detailed methods for the mouse peritonitis‐sepsis model were as follows.
Vancomycin‐resistant E. faecium 35682 was cultured in BHI broth at 37 °C fro 16 h and diluted with 5% type II porcine stomach mucin and 0.9% NaCl. E. faecium cell cultures were diluted to provide a challenge inoculum of 4.0 × 10^9 CFU in 0.5 mL and then administered into each mouse via intraperitoneal injection. 25 mice were randomly grouped into five per cohort (n = 5) and each cohort was given a single dose of either vehicle (20% solutol), aquicidine C4 at 50, 100 or 150 mg/kg and daptomycin at 100 mg kg^−1 with 15 mM CaCl2 1 h after infection via subcutaneous injection.

For assay [3], the system named is S. aureus USA300. Briefly: Raising resistant mutants by direct plating. The class given is cell-based.
The subject of assay [4] is methicillin-resistant S. aureus USA300. Briefly: Neutropenic thigh infection model. The class given is in vivo, mouse. Conditions: 50 mg kg^−1 s.c. at 2, 10, 18 h, burden at 24 h, n = 8 thighs. As for the experimental part:
as §3

Assay [5] shares this test system. The assay is described as follows: Mouse peritonitis-sepsis model. The class given is in vivo. Conditions: S. aureus USA300, ICR mice, single s.c. dose 1 h after infection, doses 50, 100, 150 mg kg^−1, n = 5. As for the experimental part:
as §5
Methicillin‐resistant S. aureus USA300 was cultured in LB broth at 37 °C for 16 h and diluted with 7% type II porcine stomach mucin with 0.2 mM FeNH4‐citrate. S. aureus cell cultures were diluted to provide a challenge inoculum of 2.5 × 10^8 CFU in 0.5 mL and then administered into each mouse via intraperitoneal injection. 25 mice were randomly grouped into five per cohort (n = 5) and each cohort was given a single dose of either vehicle (20% solutol), aquicidine C4 at 50, 100, or 150 mg kg^−1, and vancomycin at 50 mg kg^−1 1 hr after infection via subcutaneous injection.

Assay [6] has as its system S. aureus USA300. The assay is described as follows: Resistance acquisition by serial passaging. In kind it is cell-based. The conditions noted are these: S. aureus USA300, sub-MIC levels, daily passage for 21 days, n = 2. As for the experimental part: as §4
Assay [7] relates to S. aureus USA300 Cls2A338stop. Briefly: MIC against telomycin-resistant mutant. The class given is cell-based. As for the experimental part:
as §1, §2, §4
Single‐nucleotide polymorphisms (SNPs) for telomycin‐, daptomycin‐ or colistin‐resistant mutants were identified using SNIPPY by mapping DNBSEQ‐seq reads to the reference genome of S. aureus USA300 or K. pneumoniae CRKP5452.

≈ marks a conversion by molar mass, not a printed value. Bridge positions count the residues as written; N and C are the ends. Square brackets hold non-standard residues; d marks the D form. Peptide text beside a SMILES is read from it. * marks the point of attachment. Myristoyl = CCCCCCCCCCCCCC(=O)*; Orn = NCCC[C@H](N)C(=O)O; Dab = NCC[C@H](N)C(=O)O; Dap = NC[C@H](N)C(=O)O

With `CCCCCCCCCCCCCC(=O)N[C@@H](CN)C(=O)N[C@H](C(=O)N[C@@H](CC(C)C)C(=O)N[C@@H](CO)C(=O)N[C@@H](CCN)C(=O)N[C@@H](CN)C(=O)N[C@@H](Cc1ccccc1)C(=O)N[C@H](C(=O)N[C@@H](CCCN)C(=O)N[C@@H](CC(N)=O)C(=O)N[C@@H](Cc1ccccc1)C(=O)O)[C@@H](C)CC)[C@@H](C)O` [synAQU5-L] (Myristoyl-[Dap]TLS[Dab][Dap]FI[Orn]NF-OH), the “MIC Shigella Castellani LXX” value against Shigella Castellani LXX came to 8 µg/mL (≈ 5.56 µM). Also, in the assay with K. pneumoniae 15580, the “antibacterial activity (MIC) K. pneumoniae 15580” value was 8 µg/mL. In assay [1], the “reduction in CFUs compared with the vehicle” value is 3 log10. Moreover, in the assay on K. pneumoniae CRKP5452, the “increase of MIC during serial passaging” value is “no higher than two‐fold”.

Regarding `CCCCCCCCCCCCCC(=O)N[C@@H](CN)C(=O)N[C@H](C(=O)N[C@@H](CC(C)C)C(=O)N[C@H]1COC(=O)[C@H](Cc2ccccc2)NC(=O)[C@H](CC(N)=O)NC(=O)[C@H](CCCN)NC(=O)[C@H]([C@@H](C)CC)NC(=O)[C@H](Cc2ccccc2)NC(=O)[C@H](CN)NC(=O)[C@H](CCN)NC1=O)[C@@H](C)O` [synAQU5-C4] (Myristoyl-[Dap]TLS[Dab][Dap]FI[Orn]NF; ester 4-C), the “minimal dose required for 100% survival” value in assay [2] and in assay [5] was 100 mg/kg in each case. Also, the “increase in MIC of colonies from direct plating on antibiotic-containing solid media” value in the assay on S. aureus USA300 [3] is “did not show more than a one‐fold increase in MIC”. Further, in assay [4], the “reduction in CFUs compared with the vehicle” value came out at 3 log10. In the assay with S. aureus USA300 [6], the “increase of MIC during serial passaging” value is given as “no higher than twofold”. Also, the “antibacterial activity (MIC) S. aureus USA300 Cls2A338stop” value in assay [7] (Figure S127b, telomycin-resistant mutant) worked out at 16 µg/mL. The “increase in MIC against resistant mutant compared to wild type” value in assay [7] (S. aureus USA300 Cls2^A338stop vs wild type) amounted to 4 fold.

Values taken from publication PMC12677607, “Identification of a Pair of Linear or Cyclic Naturally Inspired Bifunctional Lipopeptide Antibiotics That Overcome Antimicrobial Resistance” (Advanced Science, 2025).
